Results reported in US20070117770A1, “Human ribosomal DNA (rDNA) and ribosomal RNA (rRNA) nucleic acids and uses thereof” (Cylene Pharmaceuticals, Inc., priority 2005, published 2007).

Tests used:
Assay in all cases: Protein kinase inhibition assay
Format in all cases: biochemical
Bmx(h) = Bmx(h) (Homo sapiens, UniProt P51813); settings: read-out: percent residual activity of Bmx(h)
Description: (§1) Certain compounds were tested for activity in protein kinase inhibition assays. All substrates were dissolved and diluted to working stocks in de-ionized water, apart from histone H1 (10× working stock in 20 mM MOPS pH 7.0), PDKtide (10× working stock in 50 mM Tris pH 7.0) ATF2 (which is typically stored at a 20× working stock in 50 mM Tris pH 7.5, 150 mM NaCl, 0.1 mM EGTA, 0.03% Brij-35, 50% glycerol, 1 mM benzamidine, 0.2 mM PMSF and 0.1% R-mercaptoethanol), KKLNRTLSFAEPG (SEQ ID NO:203) and RRRLSFAEPG (SEQ ID NO:204) (50 mM HEPES pH 7.4) and GGEEEEYFELVKKKK (SEQ ID NO:205) (20 mM MOPS pH 7.0). All kinases were pre-diluted to a 10× working concentration prior to addition into the assay. The composition of the dilution buffer for each kinase is detailed below.
(§2) In a final reaction volume of 25 μl, Bmx (h) (5-10 mU) is incubated with 8 mM MOPS pH 7.0, 0.2 mM EDTA, 0.1 mg/ml poly(Glu, Tyr) 4:1, 10 mM MgAcetate and [gamma-33P-ATP] (specific activity approx. 500 cpm/pmol, concentration as required). The reaction is initiated by the addition of the MgATP mix. After incubation for 40 minutes at room temperature, the reaction is stopped by the addition of 5 μl of a 3% phosphoric acid solution. 10 μl of the reaction is then spotted onto a Filtermat A and washed three times for 5 minutes in 75 mM phosphoric acid and once in methanol prior to drying and scintillation counting.

DDR2(h) = DDR2(h) (Homo sapiens, UniProt Q16832); settings: read-out: percent residual activity of DDR2(h)
Description: as §1
In a final reaction volume of 25 μl, DDR2 (h) (5-10 mU) is incubated with 8 mM MOPS pH 7.0, 0.2 mM EDTA, 250 μM KKSRGDYMTMQIG (SEQ ID NO:210), 10 mM MnCl2, 10 mM MgAcetate and [y-33P-ATP] (specific activity approx. 500 cpm/pmol, concentration as required). The reaction is initiated by the addition of the MgATP mix. After incubation for 40 minutes at room temperature, the reaction is stopped by the addition of 5 μl of a 3% phosphoric acid solution. […]

IGF-1R(h) = IGF-1R(h) (Homo sapiens, UniProt P08069); settings: read-out: percent residual activity of IGF-1R(h)
Description: as §1
In a final reaction volume of 25 μl, IGF-1R (h) (5-10 mU) is incubated with 50 mM Tris pH 7.5, 0.1 mM EGTA, 0.1 mM Na3VO4, 0.1% R-mercaptoethanol, 250 μM KKKSPGEYVNIEFG (SEQ ID NO:207), 10 mM MnCl2, 10 mM MgAcetate and [gamma-33P-ATP] (specific activity approx. 500 cpm/pmol, concentration as required). The reaction is initiated by the addition of the MgATP mix. After incubation for 40 minutes at room temperature, the reaction is stopped by the addition of 5 μl of a 3% phosphoric acid solution. […]

NEK6(h) = NEK6(h) (Homo sapiens, UniProt Q9HC98); settings: read-out: percent residual activity of NEK6(h)
Description: as §1
as §2, with “NEK6” for “Bmx”, “300 μM FLAKSFGSPNRAYKK (SEQ ID NO:221),” for “0.1 mg/ml poly(Glu, Tyr) 4:1,”, “P30 filtermat” for “Filtermat A”

PDGFRβ(h) = PDGFRβ(h) (Homo sapiens, UniProt P09619); settings: read-out: percent residual activity of PDGFRβ(h)
Description: as §1
as §2, with “PDGFRβ” for “Bmx”, “4:1, 10 mM MnCl2,” for “4:1,”

Rsk3(h) = Rsk3(h) (Homo sapiens, UniProt Q15349); settings: read-out: percent residual activity of Rsk3(h)
Description: as §1
as §2, with “Rsk3” for “Bmx”, “30 μM KKKNRTLSVA (SEQ ID NO:212),” for “0.1 mg/ml poly(Glu, Tyr) 4:1,”, “P30 filtermat” for “Filtermat A”

DDR2(h), sequence (Q16832 22-855): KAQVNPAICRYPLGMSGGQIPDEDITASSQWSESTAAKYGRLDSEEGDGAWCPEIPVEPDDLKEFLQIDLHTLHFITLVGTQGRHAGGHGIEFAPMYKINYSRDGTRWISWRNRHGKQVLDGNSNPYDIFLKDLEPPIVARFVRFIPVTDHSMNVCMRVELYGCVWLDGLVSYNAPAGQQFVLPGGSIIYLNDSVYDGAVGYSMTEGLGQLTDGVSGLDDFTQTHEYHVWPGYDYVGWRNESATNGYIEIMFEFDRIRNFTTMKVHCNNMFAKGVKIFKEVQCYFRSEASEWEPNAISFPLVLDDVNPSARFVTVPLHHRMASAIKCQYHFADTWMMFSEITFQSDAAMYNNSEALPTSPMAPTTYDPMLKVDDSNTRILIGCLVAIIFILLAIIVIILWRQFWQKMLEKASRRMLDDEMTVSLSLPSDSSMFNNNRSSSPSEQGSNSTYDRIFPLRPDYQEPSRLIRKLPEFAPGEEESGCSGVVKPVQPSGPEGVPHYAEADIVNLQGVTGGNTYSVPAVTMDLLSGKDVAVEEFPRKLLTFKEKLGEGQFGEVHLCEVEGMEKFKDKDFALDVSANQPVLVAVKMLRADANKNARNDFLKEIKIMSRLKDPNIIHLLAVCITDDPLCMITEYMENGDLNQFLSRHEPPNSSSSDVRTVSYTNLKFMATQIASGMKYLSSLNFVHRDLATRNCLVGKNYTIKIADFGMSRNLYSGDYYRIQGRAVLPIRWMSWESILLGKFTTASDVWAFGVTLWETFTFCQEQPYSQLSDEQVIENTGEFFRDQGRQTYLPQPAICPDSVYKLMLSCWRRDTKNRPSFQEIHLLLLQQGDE
PDGFRβ(h), sequence (P09619 33-1106): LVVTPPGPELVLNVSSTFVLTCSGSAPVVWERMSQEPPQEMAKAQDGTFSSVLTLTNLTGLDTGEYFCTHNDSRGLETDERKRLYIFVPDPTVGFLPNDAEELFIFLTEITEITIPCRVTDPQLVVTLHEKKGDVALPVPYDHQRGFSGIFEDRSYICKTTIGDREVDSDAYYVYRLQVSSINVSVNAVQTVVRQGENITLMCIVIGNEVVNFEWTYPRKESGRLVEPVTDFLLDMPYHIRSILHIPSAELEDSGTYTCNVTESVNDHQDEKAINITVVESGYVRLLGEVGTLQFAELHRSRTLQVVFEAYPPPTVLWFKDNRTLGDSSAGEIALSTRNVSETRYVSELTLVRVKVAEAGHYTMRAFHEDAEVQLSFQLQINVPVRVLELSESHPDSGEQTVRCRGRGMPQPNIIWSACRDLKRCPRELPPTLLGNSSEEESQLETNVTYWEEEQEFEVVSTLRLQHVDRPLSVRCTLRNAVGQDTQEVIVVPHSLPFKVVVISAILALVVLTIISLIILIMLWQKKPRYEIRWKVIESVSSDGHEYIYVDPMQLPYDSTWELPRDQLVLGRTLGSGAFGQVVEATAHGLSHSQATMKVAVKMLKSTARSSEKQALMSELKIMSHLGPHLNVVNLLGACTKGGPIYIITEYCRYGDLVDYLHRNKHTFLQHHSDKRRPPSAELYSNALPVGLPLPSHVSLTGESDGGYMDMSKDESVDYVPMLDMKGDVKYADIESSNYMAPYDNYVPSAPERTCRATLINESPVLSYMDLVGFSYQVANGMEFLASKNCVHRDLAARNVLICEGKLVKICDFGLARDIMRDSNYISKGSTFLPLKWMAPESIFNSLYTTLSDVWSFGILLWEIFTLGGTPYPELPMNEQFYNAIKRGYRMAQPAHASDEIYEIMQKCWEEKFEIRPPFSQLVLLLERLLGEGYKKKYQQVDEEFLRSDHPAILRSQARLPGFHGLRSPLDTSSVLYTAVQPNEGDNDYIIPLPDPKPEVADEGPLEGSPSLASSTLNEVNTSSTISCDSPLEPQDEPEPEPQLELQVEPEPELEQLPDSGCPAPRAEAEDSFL
Rsk3(h), sequence (Q15349 whole entry): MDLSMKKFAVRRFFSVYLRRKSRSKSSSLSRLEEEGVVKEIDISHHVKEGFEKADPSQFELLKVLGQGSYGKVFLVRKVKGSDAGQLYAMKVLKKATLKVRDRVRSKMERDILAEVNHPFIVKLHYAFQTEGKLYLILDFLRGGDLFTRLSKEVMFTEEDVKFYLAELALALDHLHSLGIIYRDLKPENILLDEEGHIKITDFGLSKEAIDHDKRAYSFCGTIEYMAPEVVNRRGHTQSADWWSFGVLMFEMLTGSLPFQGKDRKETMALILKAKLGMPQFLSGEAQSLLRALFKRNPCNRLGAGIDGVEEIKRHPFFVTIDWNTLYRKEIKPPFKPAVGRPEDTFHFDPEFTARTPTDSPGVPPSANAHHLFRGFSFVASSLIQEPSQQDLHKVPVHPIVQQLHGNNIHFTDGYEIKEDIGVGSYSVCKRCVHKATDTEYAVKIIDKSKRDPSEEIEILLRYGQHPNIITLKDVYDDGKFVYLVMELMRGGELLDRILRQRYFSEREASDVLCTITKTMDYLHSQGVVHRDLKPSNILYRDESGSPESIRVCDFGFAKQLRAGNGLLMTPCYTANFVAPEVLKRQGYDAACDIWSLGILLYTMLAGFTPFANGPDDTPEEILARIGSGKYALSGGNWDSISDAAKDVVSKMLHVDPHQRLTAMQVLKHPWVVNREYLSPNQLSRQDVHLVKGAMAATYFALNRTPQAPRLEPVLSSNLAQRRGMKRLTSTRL
IGF-1R(h), sequence (P08069 31-1367): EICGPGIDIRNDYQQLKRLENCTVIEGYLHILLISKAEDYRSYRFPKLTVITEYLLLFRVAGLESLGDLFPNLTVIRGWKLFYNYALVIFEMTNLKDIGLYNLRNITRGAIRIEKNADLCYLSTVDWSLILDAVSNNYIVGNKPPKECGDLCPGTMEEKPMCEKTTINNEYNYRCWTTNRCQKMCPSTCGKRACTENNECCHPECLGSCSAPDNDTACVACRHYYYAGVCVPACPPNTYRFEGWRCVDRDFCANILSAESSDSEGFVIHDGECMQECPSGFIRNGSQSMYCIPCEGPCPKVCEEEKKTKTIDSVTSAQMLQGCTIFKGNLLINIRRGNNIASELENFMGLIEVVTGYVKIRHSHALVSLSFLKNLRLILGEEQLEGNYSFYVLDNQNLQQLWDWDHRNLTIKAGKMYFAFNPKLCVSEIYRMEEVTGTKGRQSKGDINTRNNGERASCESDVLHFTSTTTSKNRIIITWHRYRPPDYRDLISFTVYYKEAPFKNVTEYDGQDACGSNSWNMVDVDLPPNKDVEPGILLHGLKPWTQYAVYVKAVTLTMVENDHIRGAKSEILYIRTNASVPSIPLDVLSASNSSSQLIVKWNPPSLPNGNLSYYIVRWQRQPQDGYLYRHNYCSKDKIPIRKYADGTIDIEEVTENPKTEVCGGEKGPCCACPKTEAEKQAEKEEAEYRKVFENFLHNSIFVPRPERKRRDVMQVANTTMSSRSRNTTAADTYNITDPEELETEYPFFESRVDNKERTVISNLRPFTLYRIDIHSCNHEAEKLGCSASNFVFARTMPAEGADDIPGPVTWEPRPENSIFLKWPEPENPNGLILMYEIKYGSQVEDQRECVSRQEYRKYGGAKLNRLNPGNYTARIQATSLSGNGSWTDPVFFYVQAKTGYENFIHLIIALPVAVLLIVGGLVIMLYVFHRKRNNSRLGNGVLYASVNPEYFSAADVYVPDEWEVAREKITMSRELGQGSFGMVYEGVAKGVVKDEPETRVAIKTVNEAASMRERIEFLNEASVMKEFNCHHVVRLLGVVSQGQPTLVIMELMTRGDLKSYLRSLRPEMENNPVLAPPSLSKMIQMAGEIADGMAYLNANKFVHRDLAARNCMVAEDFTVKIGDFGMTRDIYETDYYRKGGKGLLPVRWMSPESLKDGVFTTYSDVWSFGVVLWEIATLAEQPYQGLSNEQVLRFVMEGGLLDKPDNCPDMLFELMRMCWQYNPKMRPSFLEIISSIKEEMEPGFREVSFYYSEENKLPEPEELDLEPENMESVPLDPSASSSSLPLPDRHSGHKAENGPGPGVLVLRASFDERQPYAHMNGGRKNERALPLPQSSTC
Bmx(h), sequence (P51813 whole entry): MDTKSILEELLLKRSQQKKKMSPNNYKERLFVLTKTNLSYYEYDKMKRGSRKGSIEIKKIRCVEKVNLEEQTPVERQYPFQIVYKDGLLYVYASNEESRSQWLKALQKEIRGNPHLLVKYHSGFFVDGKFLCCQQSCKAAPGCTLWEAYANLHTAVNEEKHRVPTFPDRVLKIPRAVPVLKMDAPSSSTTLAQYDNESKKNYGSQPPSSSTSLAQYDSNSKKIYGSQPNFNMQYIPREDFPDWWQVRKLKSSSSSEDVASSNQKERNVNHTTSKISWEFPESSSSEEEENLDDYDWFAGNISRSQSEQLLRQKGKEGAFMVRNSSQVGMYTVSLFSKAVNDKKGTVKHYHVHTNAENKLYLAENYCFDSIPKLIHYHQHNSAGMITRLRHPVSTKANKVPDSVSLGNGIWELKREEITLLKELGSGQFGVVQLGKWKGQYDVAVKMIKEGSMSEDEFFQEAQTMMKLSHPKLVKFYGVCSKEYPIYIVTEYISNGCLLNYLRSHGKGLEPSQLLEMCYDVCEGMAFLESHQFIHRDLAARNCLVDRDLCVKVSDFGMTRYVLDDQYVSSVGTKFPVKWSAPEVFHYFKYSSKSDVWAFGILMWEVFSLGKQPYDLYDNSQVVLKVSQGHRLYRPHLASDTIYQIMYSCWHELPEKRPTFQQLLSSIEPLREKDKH
NEK6(h), sequence (Q9HC98 whole entry): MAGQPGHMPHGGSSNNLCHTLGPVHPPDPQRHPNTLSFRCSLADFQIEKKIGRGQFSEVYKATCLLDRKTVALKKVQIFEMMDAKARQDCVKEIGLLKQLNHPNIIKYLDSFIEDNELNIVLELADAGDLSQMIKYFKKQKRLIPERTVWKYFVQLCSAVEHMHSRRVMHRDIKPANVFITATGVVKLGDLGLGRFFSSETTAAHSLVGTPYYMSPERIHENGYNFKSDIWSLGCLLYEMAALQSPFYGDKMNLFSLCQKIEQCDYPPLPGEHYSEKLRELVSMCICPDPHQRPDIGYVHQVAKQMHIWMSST

SMILES | remaining activity at 2.5 µM (Bmx(h)) | remaining activity at 2.5 µM (DDR2(h)) | remaining activity at 2.5 µM (IGF-1R(h)) | remaining activity at 2.5 µM (NEK6(h)) | remaining activity at 2.5 µM (PDGFRβ(h)) | remaining activity at 2.5 µM (Rsk3(h))
CN1CCCC1CCNC(=O)c1cn2c3c(c(N4CCC(c5cnccn5)C4)c(F)cc3c1=O)Oc1cc3ccccc3cc1-2 (stereo not drawn) [Compound A-1] | 68% | 77% | 103% | 78% | 103% | 89%
CC(=O)N1CCN(c2ccc3c(=O)c(C(=O)NCCN4CCCC4)c4n(C)c5ccccc5n4c3n2)CC1 [Compound B-1] | 105% | 95% | 113% | 111% | 103% | 107%
